US20130237582A1, “PHARMACEUTICAL COMBINATION OF PACLITAXEL AND A CDK INHIBITOR” (Piramal Enterprises Limited, priority 2010, published 2013)

Tests used:
Bcl-2 = test: Western blot analysis in MCF-7 cells; format: cell-based, human; details: 1.5 and 4.5 μM, 6, 24 and 30 h
Experimental: The Western blot assay was carried out according to the procedure disclosed in Molecular Cancer Therapeutics, 2007, 6, 918-925 with some modifications.
MCF-7 and MDA-MB-231 cells were seeded in RPMI 1460 medium with 10% FCS in […] tissue culture flask and incubated for 24 h. The cells were treated with Compound A at 1.5 and 4.5 μM. At various time points, i.e. 6, 24 and 30 h the cells were harvested or trypsinized and lysed using lysis buffer (Sigma Aldrich, USA). Protein content was estimated. Lysate was applied to Sodium Dodecyl Sulphate-Polyacrylamide Gel Electrophoresis (SDS-PAGE) followed by western blotting (Molecular Cancer Therapeutics, 2007, 6, 918-925). Western blotting was done using specific antibodies to Bcl-2 and actin. The results are depicted in FIG. 4.

MCF-7 = test: Cytotoxicity assay using propidium iodide (PI); format: cell-based, human
Experimental: (§1) The propidium iodide fluorescence assay (PI) was carried out according to the procedure mentioned in Anticancer Drugs, 1995, 6, 522-32. The assay was developed to characterize the in vitro growth of human tumor cell lines as well as to test the cytotoxic activity of the compounds. Propidium iodide (PI) was used as a dye, which penetrates only damaged cellular membranes. Intercalation complexes are formed by PI with double-stranded DNA, which effect an amplification of the fluorescence. After freezing the cells at −20° C. for 24 h, PI had access to total DNA leading to total cell population counts. Background readings were obtained from cell-free wells containing media and propidium iodide. The human breast cancer cell lines (i.e. […] Control wells were treated with vehicle (DMSO). At the end of the incubation periods, the plates were assayed using PI cytotoxicity assay protocol. Percent cytoxicity was calculated at various drug concentrations and from the graph plotted the IC50 values were determined.

MDA-MB-231 = test: Cytotoxicity assay using propidium iodide (PI); format: cell-based, human
Experimental: as §1

MDA-MB-468 = test: Cytotoxicity assay using propidium iodide (PI); format: cell-based, human
Experimental: as §1

PARP = target: T1, PARP (Homo sapiens, UniProt P09874); test: PARP enzyme activity measured by PAR polymers (Western blot), MDA-MB-231; format: cell-based; details: 1.5 μM and 5 μM, 24 h
T1 construct: endogenous in cells; host or cells: MDA-MB-231; MDA-MB-468
Experimental: To study PARP enzyme activity, PAR polymer formation was measured. MDA-MB-231 and MDA-MB-468 cells were seeded in RPMI 1460 medium with 10% FCS in […] tissue culture flask and incubated for 24 h. These cells were treated at 1.5 μM and 5 μM of Compound A for 24 h. The cells were harvested (trypsinised) and lysed using lysis buffer. Western blotting (Molecular Cancer Therapeutics, 2007, 6, 918-925) was done with specific antibody to PAR.
Correlation of PARP activity and cell cycle proteins cyclin D1, total Rb and pRb 780 were studied in two TNBC cell lines viz. MDA-MB-468 and MDA-MB-231. MDA-MB-231 and MDA-MB-468 cells were seeded in RPMI 1460 medium with 10% FCS in […] tissue culture flask and incubated for 24 h. These cells were treated at 1.5 μM and 5 μM Compound A for 24 h. The cells were harvested (trypsinised) and lysed using lysis buffer. Western blotting was carried out (Molecular Cancer […], 2007, 6, 918-925) using specific antibody to PAR, PARP, cyclin D1, CDK4 and pRb Ser 780.

VEGF = VEGF reporter gene based assay (M-9 cells); format: cell-based; details: Homo sapiens, hypoxia, 20-24 h, read-out: IC50 for VEGF inhibition under hypoxia
Experimental: A cell line M-9 is MDA-MB-231 which is stably co-transfected with the VEGF-Luc construct (VEGF promoter in pGL2-basic) and a plasmid containing the Geneticin (G418) resistance gene which forms VEGF promoter reporter gene. The expression of the reporter gene in the clone cells, as measured by luciferase activity, is stable.
The effect of Compound A on VEGF inhibition was evaluated using the VEGF reporter gene based assay.
Lysis Assay Buffer (1×) • Tris-Phosphate (pH 7.8)-125 mM, DTT-10 mM, EDTA-10 mM, Glycerol-50% and Triton X-100-5%.
Luciferase Assay Reagent (LAR) • Luciferase Assay Buffer-8 mL, 530 μM ATP-530 μL, 270 μM CoA-1 mL and 170 μM Luciferin-1 mL.
Luciferase Assay Buffer (LAB) (1×) • Tricin (pH 7.8)-20 mM, Magnesia Alba-1.07 mM, MgSO4-2.67 mM, EDTA-0.1 mM and DTT-33.3 mM. ATP Stock made in LAB=5.85 mg/mL CoA Stock made in LAB=2.1 mg/mL Luciferin Stock made in LAB=1.5 mg/mL
1. M-9 cells were sub-cultured and maintained in RPMI-1640 Medium with supplement of 10% FBS, and 4 μL/ml G418 (Stock 100 mg/mL) in a humidified incubator at 37° C. and 5% CO2. 2. Cells were seeded at density of 3×10^4 cells/well in 180 μL volume in tissue culture grade 96 well white plates as well as transparent plates and allowed to adhere for 16-20 h in humidified CO2 incubator (5% CO2) at 37° C. A total of two sets of plates were made, as the incubation conditions are different. 3. Compound A, Sutent® and BSI-201 were diluted in medium serially so that final desired concentrations are achieved in the respective wells. (not more than 0.5% concentration of DMSO in the wells). 4. INCUBATION CONDITIONS: One set of plates are incubated under ambient atmospheric condition with 5% CO2, referred hereafter as NORMOXIC/OXIC PLATE. […] To all the wells, 100 μL Luciferase Assay Reagent (LAR) are added, plates are immediately read for Luminescence on TOPCOUNT™ (Packard, USA). The percentage inhibitions and Inhibitory Concentration (IC50) or Effective Concentration (EC50) are calculated in comparison with Control (untreated) values. […]

[1] = Homo sapiens, 48 h treatment, PI assay

T1 sequence (P09874 2-1014 limits assumed): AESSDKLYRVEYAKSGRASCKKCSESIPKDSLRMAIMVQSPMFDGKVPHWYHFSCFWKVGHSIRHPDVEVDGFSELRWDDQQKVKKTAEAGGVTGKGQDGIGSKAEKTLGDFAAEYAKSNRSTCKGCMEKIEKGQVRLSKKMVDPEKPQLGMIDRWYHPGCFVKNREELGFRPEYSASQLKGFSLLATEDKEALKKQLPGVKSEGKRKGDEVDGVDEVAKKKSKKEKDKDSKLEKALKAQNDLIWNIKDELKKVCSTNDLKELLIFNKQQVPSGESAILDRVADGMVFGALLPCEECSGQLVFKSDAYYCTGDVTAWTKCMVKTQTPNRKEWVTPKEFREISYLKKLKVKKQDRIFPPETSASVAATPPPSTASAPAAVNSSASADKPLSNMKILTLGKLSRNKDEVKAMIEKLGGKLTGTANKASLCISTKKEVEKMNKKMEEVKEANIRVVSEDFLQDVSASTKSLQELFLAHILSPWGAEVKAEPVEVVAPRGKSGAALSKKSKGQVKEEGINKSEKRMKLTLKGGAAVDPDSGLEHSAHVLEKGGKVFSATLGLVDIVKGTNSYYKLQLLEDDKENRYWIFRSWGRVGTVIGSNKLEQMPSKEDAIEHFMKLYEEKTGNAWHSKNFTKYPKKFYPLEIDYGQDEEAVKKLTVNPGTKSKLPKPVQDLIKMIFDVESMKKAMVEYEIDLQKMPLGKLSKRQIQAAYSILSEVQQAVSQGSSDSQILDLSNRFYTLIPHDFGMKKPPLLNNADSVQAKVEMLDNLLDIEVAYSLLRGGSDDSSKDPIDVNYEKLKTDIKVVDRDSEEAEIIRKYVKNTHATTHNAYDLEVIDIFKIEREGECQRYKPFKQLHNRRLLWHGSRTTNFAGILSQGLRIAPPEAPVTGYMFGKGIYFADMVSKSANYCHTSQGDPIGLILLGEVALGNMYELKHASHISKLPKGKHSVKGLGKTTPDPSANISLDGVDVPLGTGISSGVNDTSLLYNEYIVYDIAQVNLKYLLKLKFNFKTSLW

`CN1CC[C@@H](c2c(O)cc(O)c3c(=O)cc(-c4ccccc4Cl)oc23)[C@@H]1CO.Cl` [Compound A, (+)-trans-2-(2-Chloro-phenyl)-5,7-dihydroxy-8-(2-hydroxymethyl-1-methyl-pyrrolidin-3-yl)-chromen-4-one hydrochloride] was tested, and the “expression of antiapoptotic protein Bcl-2” value (Bcl-2) was “significantly down regulated from 24 h onwards”, the IC50 (MCF-7; Homo sapiens, MCF7, PI assay) was 1 µM and the IC10 (MCF-7; determined as in Example 3) was 0.37 µM. It also gave an IC30 (MCF-7; determined as in Example 3) of 0.75 µM, an IC50 (MDA-MB-231; [1]) of 1 µM and an IC10 (MDA-MB-231; determined as in Example 3) of 0.45 µM. The IC30 (MDA-MB-231; determined as in Example 3) was 0.75 µM, the IC50 (MDA-MB-468; [1]) was 1 µM and the IC10 (MDA-MB-468; determined as in Example 3) was 0.25 µM. The IC30 (MDA-MB-468; determined as in Example 3) was 0.5 µM, the “PARP enzyme activity (PAR polymer formation)” value (PARP) was “inhibits PARP enzyme activity” and the IC50 (VEGF) was 0.31 µM.
